Patent US20220118117A1, “MODULATORS OF METABOTROPIC GLUTAMATE RECEPTOR 4” (The General Hospital Corporation, priority 2019, published 2022)
Where two headings read alike, the source gives them in different places.

Experiments:
[1] = Log D7.4, scaled-down shake flask method using [18F]15; format: physicochemical; conditions: octanol / phosphate buffer pH 7.4
Method: The test tube was mixed by vortex for 2 min and then centrifuged for 2 min to fully separate the aqueous and organic phase. The samples taken from the octanol layer (0.1 mL) and the aqueous layer (1.0 mL) were saved for radioactivity measurement. An additional aliquot of the octanol layer […] was carefully transferred to a new test tube containing 0.5 mL of octanol and 2.5 mL of phosphate buffer solution (pH 7.4). The previous procedure (vortex mixing, centrifugation, sampling, and transfer to the next test tube) was repeated until six sets of aliquot samples had been prepared. The radioactivity of each sample was measured using PerkinElmer Wizard2 2480 gamma-counter. The log D of each set of samples was calculated as the following:
Log D7.4=Log(radioactivity of octanol layer×10/radioactivity of PBS layer)
Lipophilicity has a major effect on BBB penetration, ADMET properties and pharmacological activity. […] The Log D7.4 of 15 was 3.82 as measured with a scaled-down shake flask method using [^18F]15 (Table 2) and is in the range normally considered favorable for a PET ligand. (Ref. 43).

[2] = target: T1, mGluR4 (Homo sapiens, UniProt Q14833); experiment: GloSensor cAMP biosensor assay, mGluR4 PAM and agonist activity; format: cell-based; design: expressed in transfected cells
T1 sequence (Q14833 33-912): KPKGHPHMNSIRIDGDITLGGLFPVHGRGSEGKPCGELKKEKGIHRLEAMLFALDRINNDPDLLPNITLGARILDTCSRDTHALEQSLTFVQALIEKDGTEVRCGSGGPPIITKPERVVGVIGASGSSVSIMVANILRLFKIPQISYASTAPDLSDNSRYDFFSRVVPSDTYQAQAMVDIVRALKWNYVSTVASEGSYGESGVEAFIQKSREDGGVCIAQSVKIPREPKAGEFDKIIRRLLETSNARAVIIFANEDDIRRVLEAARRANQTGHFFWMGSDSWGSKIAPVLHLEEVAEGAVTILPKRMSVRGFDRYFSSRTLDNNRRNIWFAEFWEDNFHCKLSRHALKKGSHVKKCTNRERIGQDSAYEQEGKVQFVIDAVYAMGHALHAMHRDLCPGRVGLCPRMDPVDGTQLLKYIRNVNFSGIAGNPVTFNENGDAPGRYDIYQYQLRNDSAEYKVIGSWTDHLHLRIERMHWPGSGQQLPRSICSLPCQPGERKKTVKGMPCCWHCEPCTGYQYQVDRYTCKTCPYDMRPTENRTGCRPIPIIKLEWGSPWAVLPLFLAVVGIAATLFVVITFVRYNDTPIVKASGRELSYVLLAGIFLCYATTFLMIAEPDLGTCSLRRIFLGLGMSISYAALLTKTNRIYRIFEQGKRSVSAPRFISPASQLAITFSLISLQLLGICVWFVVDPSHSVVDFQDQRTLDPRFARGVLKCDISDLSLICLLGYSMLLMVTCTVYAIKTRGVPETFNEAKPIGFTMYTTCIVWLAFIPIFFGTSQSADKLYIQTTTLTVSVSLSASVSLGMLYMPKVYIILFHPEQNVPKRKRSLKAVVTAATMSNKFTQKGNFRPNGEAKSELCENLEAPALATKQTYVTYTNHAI
Method: Cell Culture. HEK-293 cells were maintained with complete Dulbecco's modified Eagle's medium (DMEM), which was composed of 10% fetal bovine serum (FBS), 2 mM L-glutamine, 100 units/mL penicillin G, 100 μg/mL streptomycin at 37° C. in the presence of 5% CO2. HEK-293 stable cell lines with tetracycline inducible expression of mGluR1, mGluR2, mGluR4, mGluR6 or mGluR8 were maintained with complete DMEM with Hygromycin B (100 μg/mL), Blasticidin (15 μg/mL) at 37° C. in the presence of 5% CO2.
cAMP assay. The Gi/o coupled receptors (mGluR2, mGluR3, mGluR4, mGluR6 and mGluR8) were tested using cAMP assay. Promega's split luciferase based GloSensor cAMP biosensor technology was used in determining Gi-GPCR mediated cAMP production in live cells. On the cells stably expressing mGluR2, mGluR3, mGluR4, mGluR6 or mGluR8, GloSensor cAMP DNA construct was transfected overnight. Cells were seeded into PLL coated 384-well white clear bottom cell culture plates with complete BME Buffer with Tetracycline (1 μg/mL) at a density of 20,000 cells for another 24 h. The cell medium was removed and then 20 μL of buffer was loaded. […] Luminescence was counted in a Trilux luminescence counter. Data were analyzed with Prizm 5.0 (GraphPad software).
Secondary assays—Dose-response assays. […] For each compound, the results from four replicates were averaged and then either EC50 or IC50 values were calculated by non-linear regression using the 4-parameter logistic equation. […]
In sum, the mGluR4 PAM activity was determined using Promega's split luciferase based GloSensor cAMP biosensor assay (refs. 41-42). mGluR4 is coupling to Gαi protein to inhibit adenylate cyclase, which converts ATP to cAMP, which plays an important role in many signal transduction pathways. […] The mGluR4 PAM activity of 15 was evaluated in presence of EC20 concentration of agonist (1 μM L-SOP) by measuring changes in intracellular cAMP concentration.

[3] = target: T1, mGluR4; experiment: competitive binding (radioligand replacement) assay with [3H]4 in mGluR4 transfected CHO cells; design: expressed in transfected cells; host or cells: CHO cells; conditions: 2 nM [3H]4, read-out: IC50 (nM), affinity to mGluR4
Method: In Vitro mGluR4 Binding Assay. CHO cells expressing mGluR4 were used for all binding assay protocols. For competitive binding, 2 nM of [^3H]4 was used together with increased concentrations of test compounds ranging from 0.01 nM to 10 μM. Each test tube contained 50 000 freshly harvested CHO cells expressing mGluR4 cultured in HAMs cell culture medium with 100 nM of glutamate, penicillin-streptomycin (100 units), and 1 mM G418. [3H]4 (2 nM) was added to the cell extract with and without test compounds on ice and then incubated for 30 min at room temperature. Samples were centrifuged at 1200 rpm for 10 min at 4° C. and washed three times with a cold cell culture medium as a washing buffer. Samples were lysed by adding 100 μL of 0.5% NaOH and heated using a heating block (56° C., 30 min). Samples were cooled with an ice bath and transferred to Solvent-Saver scintillation vials (VWR International LLC.). To obtain binding parameters, the scintillation liquid (PerkinElmer, Optima Gold) was added prior to counting with a scintillation counter (Packard TriCarb Model, 1 min/vial). Nonspecific binding was determined using 10 μM of nonradioactive test compound, and specific binding was determined by extracting the nonspecific binding from total binding. All measurements were done in triplicate and analyzed with GraphPad Prism software (GraphPad Software Inc.).

Log D7.4 [1]: 3.82
EC50 ([2]; agonist mode, cAMP assay, read-out: EC50, mGluR4 agonist activity): 2750 nM
EC50 ([2]; in presence of EC20 concentration of agonist (1 μM L-SOP), read-out: EC50, mGluR4 PAM activity): 324 nM
IC50 [3]: 3.4 nM
Structure (SMILES): [2H]C([2H])(F)Sc1cc(NC(=O)c2ccccn2)ccc1Cl [Compound 15, N-(4-Chloro-3-((fluoromethyl-d2)thio)phenyl)picolinamide]
